The assay addresses Envelope glycoprotein gp160 (Human immunodeficiency virus 1, UniProt Q6QLK5). Description: inhibitors of HIV fusion peptide binding, primary screen, biochemical, uHTS, fluorescence dequenching (AID 1986).

We go through 1 compound from ChEMBL document CHEMBL1201862, “PubChem BioAssay data set” (2004).

Active and inactive are the calls of the source. Cut-off read from the data, not from the text of the source: actives have a measured IC50 and inactives only a lower limit.

Envelope glycoprotein gp160, sequence (Q6QLK5 whole entry, the tested form may be a part): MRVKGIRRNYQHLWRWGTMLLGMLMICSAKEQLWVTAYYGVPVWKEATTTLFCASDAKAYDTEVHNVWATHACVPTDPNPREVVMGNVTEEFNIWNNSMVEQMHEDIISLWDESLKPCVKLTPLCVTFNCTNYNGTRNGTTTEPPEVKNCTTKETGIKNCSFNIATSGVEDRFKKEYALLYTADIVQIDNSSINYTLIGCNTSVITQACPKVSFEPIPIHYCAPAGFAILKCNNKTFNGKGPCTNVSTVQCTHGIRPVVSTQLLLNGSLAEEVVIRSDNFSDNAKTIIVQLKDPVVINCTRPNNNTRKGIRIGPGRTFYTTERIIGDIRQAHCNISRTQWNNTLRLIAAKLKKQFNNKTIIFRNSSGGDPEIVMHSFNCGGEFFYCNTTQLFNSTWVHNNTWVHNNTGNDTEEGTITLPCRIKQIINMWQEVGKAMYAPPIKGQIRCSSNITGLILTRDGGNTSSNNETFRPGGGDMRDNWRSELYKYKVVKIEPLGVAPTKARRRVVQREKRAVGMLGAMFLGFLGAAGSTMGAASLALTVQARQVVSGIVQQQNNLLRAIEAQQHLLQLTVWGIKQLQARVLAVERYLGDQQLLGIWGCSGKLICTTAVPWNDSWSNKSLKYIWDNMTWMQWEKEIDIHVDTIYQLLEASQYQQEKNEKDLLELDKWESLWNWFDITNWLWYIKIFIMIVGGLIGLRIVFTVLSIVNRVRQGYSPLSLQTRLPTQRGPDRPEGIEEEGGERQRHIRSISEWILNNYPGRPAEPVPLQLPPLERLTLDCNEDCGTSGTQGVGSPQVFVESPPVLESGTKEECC

In general, IC50 refers to the concentration needed to halve the response being measured. As for `Cc1[nH]n(-c2ccccc2)c(=O)c1/C=C1/C(=O)NN(c2ccc(F)c(Cl)c2)C1=O`, the IC50 is 12.1 µM (active).
